Toxic doses and inconclusive results are not listed. The calls were made as follows: active = survival T/C of 150% or more; inactive = T/C below 125% in these data.
Tested on: CD2F1 mice, L1210 leukemia ip, survival T/C
Test: NCI In Vivo Anticancer Drug Screen. Data for tumor model L1210 Leukemia (intraperitoneal) in CD2F1 (CDF1) mice
Conditions: higher = longer survival
Summary of the method: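 Each value reflects a quotient of treated over vehicle control outcomes in mice with a transplanted tumor.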

[1] = endpoint: mean survival time, dose: 50.0 mg/kg/injection, schedule: Q01DX009 (ip), vehicle: saline with Tween-80
[2] = endpoint: mean survival time, dose: 100.0 mg/kg/injection, schedule: Q01DX009 (ip), vehicle: saline with Tween-80
[3] = endpoint: mean survival time, dose: 200.0 mg/kg/injection, schedule: Q01DX009 (ip), vehicle: saline with Tween-80
[4] = endpoint: mean survival time, dose: 100.0 mg/kg/injection, schedule: Q04DX003 (ip), vehicle: saline with Tween-80
[5] = endpoint: mean survival time, dose: 200.0 mg/kg/injection, schedule: Q04DX003 (ip), vehicle: saline with Tween-80
[6] = endpoint: mean survival time, dose: 400.0 mg/kg/injection, schedule: Q04DX003 (ip), vehicle: saline with Tween-80
[7] = endpoint: mean survival time, dose: 100.0 mg/kg/injection, schedule: Q01DX001 (ip), vehicle: saline
[8] = endpoint: mean survival time, dose: 200.0 mg/kg/injection, schedule: Q01DX001 (ip), vehicle: saline
[9] = endpoint: mean survival time, dose: 400.0 mg/kg/injection, schedule: Q01DX001 (ip), vehicle: saline
[10] = endpoint: mean survival time, dose: 25.0 mg/kg/injection, schedule: Q04DX003 (ip), vehicle: saline
[11] = endpoint: mean survival time, dose: 50.0 mg/kg/injection, schedule: Q04DX003 (ip), vehicle: saline
[12] = endpoint: mean survival time, dose: 100.0 mg/kg/injection, schedule: Q04DX003 (ip), vehicle: saline
[13] = endpoint: mean survival time, dose: 100.0 mg/kg/injection, schedule: Q04DX002 (ip), vehicle: saline with Tween-80
[14] = endpoint: mean survival time, dose: 200.0 mg/kg/injection, schedule: Q04DX002 (ip), vehicle: saline with Tween-80
[15] = endpoint: mean survival time, dose: 75.0 mg/kg/injection, schedule: Q01DX001 (ip), vehicle: saline
[16] = endpoint: mean survival time, dose: 400.0 mg/kg/injection, schedule: Q01DX009 (ip), vehicle: saline with Tween-80

Measured: T/C

CCC1=C(C)C(=O)Nc2c3ncnc-3ncn2C1O (stereo not drawn)
inactive: [1] 104 % of control | [2] 101 % of control | [3] 102 % of control

CCCNC(=O)NO
inactive: endpoint: mean survival time, dose: 4.0 mg/kg/injection, schedule: Q03HX024 (ip), vehicle: other 97 % of control | endpoint: mean survival time, dose: 8.0 mg/kg/injection, schedule: Q03HX024 (ip), vehicle: other 97 % of control | endpoint: mean survival time, dose: 16.0 mg/kg/injection, schedule: Q03HX024 (ip), vehicle: other 96 % of control | endpoint: mean survival time, dose: 32.0 mg/kg/injection, schedule: Q03HX024 (ip), vehicle: other 98 % of control | endpoint: mean survival time, dose: 64.0 mg/kg/injection, schedule: Q03HX024 (ip), vehicle: other 97 % of control

CC(C)(C)OC(=O)NC(CO)C(=O)O (stereo not drawn)
inactive: [4] 92 % of control | [5] 86 % of control | [6] 94 % of control

CC(=O)OCC1OC(n2cnc3c(=S)nc(N)[nH]c32)C(OC(C)=O)C1OC(C)=O (stereo not drawn)
inactive: endpoint: mean survival time, dose: 100.0 mg/kg/injection, schedule: Q01DX005 (ip), vehicle: saline 112 % of control | endpoint: mean survival time, dose: 200.0 mg/kg/injection, schedule: Q01DX005 (ip), vehicle: saline 123 % of control

CCOC(=O)Nc1ccc(S(=O)(=O)O)cc1
inactive: [7] 94 % of control | [8] 105 % of control | [9] 98 % of control

CC(C)C1C(=O)CCCC1=O
inactive: [4] 102 % of control | [5] 105 % of control | [6] 96 % of control

CN(C)/C=N/N1CCCCCC1
inactive: [10] 103 % of control | [11] 97 % of control | [12] 96 % of control

Cn1c(=O)c2[nH]cnc2n(C)c1=O (tested in a mixture with another compound)
inactive: endpoint: mean survival time, dose: 50.0 mg/kg/injection, schedule: Q01DX009 (ip), vehicle: saline sonified 98 % of control | endpoint: mean survival time, dose: 100.0 mg/kg/injection, schedule: Q01DX009 (ip), vehicle: saline sonified 98 % of control | endpoint: mean survival time, dose: 200.0 mg/kg/injection, schedule: Q01DX009 (ip), vehicle: saline sonified 98 % of control

COc1ccc(C2C3CCC(C3)C2N)cc1 (stereo not drawn)
inactive: endpoint: mean survival time, dose: 5.0 mg/kg/injection, schedule: Q01DX009 (ip), vehicle: saline 96 % of control | endpoint: mean survival time, dose: 10.0 mg/kg/injection, schedule: Q01DX009 (ip), vehicle: saline 96 % of control | endpoint: mean survival time, dose: 20.0 mg/kg/injection, schedule: Q01DX009 (ip), vehicle: saline 92 % of control | [10] 101 % of control | [11] 96 % of control | [12] 90 % of control

COc1ccc2c(c1)CCC1C2=CC2=NNC(=O)C2C1c1ccccc1 (stereo not drawn)
inactive: [13] 92 % of control | [14] 92 % of control | endpoint: mean survival time, dose: 400.0 mg/kg/injection, schedule: Q04DX002 (ip), vehicle: saline with Tween-80 88 % of control

Nc1ncnc2c1ncn2C1OCC(O)C(O)C1O (stereo not drawn)
inactive: endpoint: mean survival time, dose: 50.0 mg/kg/injection, schedule: Q01DX001 (ip), vehicle: saline 101 % of control | [7] 102 % of control | [8] 101 % of control | [9] 98 % of control

O=C(O)/C(=C(/c1ccccc1)c1ccc(Cl)cc1)c1ccccc1
inactive: [4] 98 % of control | [5] 96 % of control | [6] 98 % of control

Cc1cc(=O)[nH]c2c1c(C#N)cn2C1CCCCC1
inactive: [12] 101 % of control | endpoint: mean survival time, dose: 200.0 mg/kg/injection, schedule: Q04DX003 (ip), vehicle: saline 89 % of control | endpoint: mean survival time, dose: 400.0 mg/kg/injection, schedule: Q04DX003 (ip), vehicle: saline 93 % of control

Nc1ccc(CCCCc2ccccc2)cc1
inactive: endpoint: mean survival time, dose: 100.0 mg/kg/injection, schedule: Q04DX003 (ip), vehicle: acetone 107 % of control

O=C(O)C1=CCCc2ccc(Br)cc21
inactive: endpoint: median survival time, dose: 25.0 mg/kg/injection, schedule: Q04DX003 (ip), vehicle: saline with Tween-80 100 % of control | endpoint: median survival time, dose: 50.0 mg/kg/injection, schedule: Q04DX003 (ip), vehicle: saline with Tween-80 100 % of control | endpoint: median survival time, dose: 100.0 mg/kg/injection, schedule: Q04DX003 (ip), vehicle: saline with Tween-80 88 % of control | endpoint: median survival time, dose: 200.0 mg/kg/injection, schedule: Q04DX003 (ip), vehicle: saline with Tween-80 88 % of control

CCCCCCCCN1C(=O)CCC1=O
inactive: [13] 103 % of control | [14] 91 % of control

O=C(CF)[O][Sb]([O]C(=O)CF)([c]1ccccc1)([c]1ccccc1)[c]1ccccc1
inactive: endpoint: mean survival time, dose: 5.0 mg/kg/injection, schedule: Q01DX009 (ip), vehicle: saline with Tween-80 105 % of control | endpoint: mean survival time, dose: 10.0 mg/kg/injection, schedule: Q01DX009 (ip), vehicle: saline with Tween-80 108 % of control

O=c1cc(CCl)n2cnc3c(ncn3C3OC(CO)C(O)C3O)c2n1 (stereo not drawn)
inactive: endpoint: median survival time, dose: 12.5 mg/kg/injection, schedule: Q01DX005 (ip), vehicle: saline with Tween-80 103 % of control | endpoint: median survival time, dose: 25.0 mg/kg/injection, schedule: Q01DX005 (ip), vehicle: saline with Tween-80 102 % of control | endpoint: median survival time, dose: 50.0 mg/kg/injection, schedule: Q01DX005 (ip), vehicle: saline with Tween-80 96 % of control | endpoint: median survival time, dose: 100.0 mg/kg/injection, schedule: Q01DX005 (ip), vehicle: saline with Tween-80 104 % of control | endpoint: median survival time, dose: 200.0 mg/kg/injection, schedule: Q01DX005 (ip), vehicle: saline with Tween-80 98 % of control

O=[N+]([O-])c1cccc(/C=C/C2(CCl)OCCO2)c1
inactive: endpoint: mean survival time, dose: 100.0 mg/kg/injection, schedule: Q01DX001 (ip), vehicle: saline with Tween-80 101 % of control | endpoint: mean survival time, dose: 200.0 mg/kg/injection, schedule: Q01DX001 (ip), vehicle: saline with Tween-80 116 % of control

C=COC(=O)N1CCCCC1
inactive: [15] 97 % of control | endpoint: mean survival time, dose: 150.0 mg/kg/injection, schedule: Q01DX001 (ip), vehicle: saline 98 % of control | endpoint: mean survival time, dose: 300.0 mg/kg/injection, schedule: Q01DX001 (ip), vehicle: saline 106 % of control

COC(=O)C(C(=O)OC)=C(C(=O)OC)C(=O)OC
inactive: [2] 96 % of control | [3] 96 % of control | [16] 94 % of control

O=C(O)/C=C\C(=O)Nc1ccc(Cl)cc1
inactive: [2] 102 % of control | [4] 108 % of control | [3] 93 % of control | [5] 97 % of control | [16] 98 % of control | [6] 94 % of control

O=C(O)/C=C/C(=O)NNC(=O)/C=C/C(=O)O
inactive: [1] 94 % of control | [2] 96 % of control | [3] 91 % of control

N=C(N)N1CCc2ccccc2C1
inactive: endpoint: mean survival time, dose: 18.8 mg/kg/injection, schedule: Q01DX009 (ip), vehicle: saline 103 % of control | endpoint: mean survival time, dose: 37.5 mg/kg/injection, schedule: Q01DX009 (ip), vehicle: saline 98 % of control | [15] 97 % of control | endpoint: mean survival time, dose: 75.0 mg/kg/injection, schedule: Q01DX009 (ip), vehicle: saline 103 % of control

OCCN(Cc1ccccc1)C(c1ccccc1)c1ccccc1
inactive: endpoint: mean survival time, dose: 100.0 mg/kg/injection, schedule: Q04DX003 (ip), vehicle: Klucel (hydroxypropylcellulose) (HPC) 91 % of control | endpoint: mean survival time, dose: 200.0 mg/kg/injection, schedule: Q04DX003 (ip), vehicle: Klucel (hydroxypropylcellulose) (HPC) 97 % of control | endpoint: mean survival time, dose: 400.0 mg/kg/injection, schedule: Q04DX003 (ip), vehicle: Klucel (hydroxypropylcellulose) (HPC) 97 % of control

Cc1cn(C2CC3OP(=O)(OCc4ccccc4)OCC3O2)c(=O)[nH]c1=O (stereo not drawn)
inactive: endpoint: median survival time, dose: 12.5 mg/kg/injection, schedule: Q01DX005 (ip), vehicle: distilled water + Tween-80 100 % of control | endpoint: median survival time, dose: 25.0 mg/kg/injection, schedule: Q01DX005 (ip), vehicle: distilled water + Tween-80 101 % of control | endpoint: median survival time, dose: 50.0 mg/kg/injection, schedule: Q01DX005 (ip), vehicle: distilled water + Tween-80 102 % of control | endpoint: median survival time, dose: 100.0 mg/kg/injection, schedule: Q01DX005 (ip), vehicle: distilled water + Tween-80 104 % of control | endpoint: median survival time, dose: 200.0 mg/kg/injection, schedule: Q01DX005 (ip), vehicle: distilled water + Tween-80 98 % of control

CN(C)C(=S)[S][Sn]([CH3])([CH3])[CH3]
inactive: endpoint: mean survival time, dose: 0.39 mg/kg/injection, schedule: Q01DX009 (ip), vehicle: saline 115 % of control | endpoint: mean survival time, dose: 0.78 mg/kg/injection, schedule: Q01DX009 (ip), vehicle: saline 107 % of control | endpoint: mean survival time, dose: 1.56 mg/kg/injection, schedule: Q01DX009 (ip), vehicle: saline 95 % of control

CC12C=CC(=O)C=C1CCCC2 (stereo not drawn)
inactive: endpoint: mean survival time, dose: 12.5 mg/kg/injection, schedule: Q04DX002 (ip), vehicle: saline with Tween-80 96 % of control | endpoint: mean survival time, dose: 25.0 mg/kg/injection, schedule: Q04DX002 (ip), vehicle: saline with Tween-80 91 % of control | endpoint: mean survival time, dose: 50.0 mg/kg/injection, schedule: Q04DX002 (ip), vehicle: saline with Tween-80 96 % of control

Reference: PubChem BioAssay AID256 (DTP/NCI, 2004)
